Converted amounts (≈) assume the structure as drawn.
Key:
[1] = Compound was evaluated minimum inhibitory concentration against moloney sarcoma virus (MSV) infected C3H cell cultures.; assay type: functional; details: Mus musculus
CCRF-CEM [2] = assay: Compound was evaluated for antiviral activity against HIV-1 (IIIB) infected CEM cells.; assay type: functional, cell-based; details: Homo sapiens
CCRF-CEM [3] = assay: Compound was evaluated for antiviral activity against HIV-2 (ROD) infected CEM cells.; assay type: functional, cell-based; details: Homo sapiens
[4] = Ratio of CC50/EC50 was calculated; assay type: functional
CCRF-CEM [5] = assay: Compound was evaluated for cytotoxic activity against CEM cells.; assay type: functional; details: Homo sapiens
[6] = Compound was evaluated cytotoxicity against moloney sarcoma virus (MSV) infected C3H cell cultures.; assay type: functional; details: Mus musculus

Row | MIC [1] [µM] | EC50 (CCRF-CEM [2]) [nM] | EC50 (CCRF-CEM [3]) [nM] | Structure (SMILES) | Selectivity index [4] | CC50 (CCRF-CEM [5]) [µM] | CC50 [6] [µM]
1 | 31 (≈ 7.23 µg/mL) | 20000 | 20000 | Nc1ncnc2c1ncn2[C@H]1C=C[C@@H](CO)O1 | 4.5 | 91 | > 100
2 | 9.4 (≈ 4.46 µg/mL) | 6 | 18 | COC(=O)C(C)NP(=O)(OCC1C=CC(n2cnc3c(N)ncnc32)O1)Oc1ccccc1 (configuration not stated) | 633 | 3.8 | > 100
3 | 0.2 (≈ 0.11 µg/mL) | 8 | 8 | CC(NP(=O)(OCC1C=CC(n2cnc3c(N)ncnc32)O1)Oc1ccccc1)C(=O)OCc1ccccc1 (configuration not stated) | 237 | 1.9 | > 4
4 | 0.02 (≈ 0.00534 µg/mL) | – | – | Cc1cn([C@H]2C[C@H](N=[N+]=[N-])[C@@H](CO)O2)c(=O)[nH]c1=O [ZIDOVUDINE] | > 20000 | > 100 | > 20

Source: ChEMBL document CHEMBL1129180, “Phosphoramidate derivatives of 2,3-didehydro-2,3-dideoxyadenosine [d4A] have markedly improved anti-HIV potency and selectivity” (Bioorg Med Chem Lett, 1996)
